Holding throughout (format): cell-based
The subject of data set [1] is human glucose-6-phosphatase translocase mRNA. As to the kind of experiment: Antisense inhibition of human glucose-6-phosphatase translocase mRNA in T-24 cells, real-time PCR (Table 4). Particulars: 100 nM oligonucleotide, LIPOFECTIN, mRNA by real-time PCR. As to the method:
The transitional cell bladder carcinoma cell line T-24 was obtained from the American Type Culture Collection (ATCC) (Manassas, Va.). T-24 cells were routinely cultured in complete McCoy's 5A basal media (Invitrogen Life Technologies, Carlsbad, Calif.) supplemented with 10% fetal bovine serum (Invitrogen Life Technologies, Carlsbad, Calif.). Cells were routinely passaged by trypsinization and dilution when they reached approximately 90% confluence. Cells were seeded into 96-well plates (Falcon-Primaria #3872) at a density of approximately 4000-6000 cells/well for use in oligomeric compound transfection experiments. When cells reached 65-75% confluency, they were treated with oligonucleotide. […] This transfection mixture was incubated at room temperature for approximately 0.5 hours. For cells grown in 96-well plates, wells were washed once with 100 μL OPTI-MEMTM-1 and then treated with 130 μL of the transfection mixture. Cells grown in 24-well plates or other standard tissue culture plates are treated similarly, using appropriate volumes of medium and oligonucleotide. Cells are treated and data are obtained in duplicate or triplicate. After approximately 4-7 hours of treatment at 37° C., the medium containing the transfection mixture was replaced with fresh culture medium. Cells were harvested 16-24 hours after oligonucleotide treatment. […] Prior to quantitative PCR analysis, primer-probe sets specific to the target gene being measured were evaluated for their ability to be “multiplexed” with a GAPDH amplification reaction. After isolation the RNA is subjected to sequential reverse transcriptase (RT) reaction and real-time PCR, both of which are performed in the same well. RT and PCR reagents were obtained from Invitrogen Life Technologies (Carlsbad, Calif.). […] The RT reaction was carried out by incubation for 30 minutes at 48° C. Following a 10 minute incubation at 95° C. to activate the PLATINUM® Taq, 40 cycles of a two-step PCR protocol were carried out: 95° C. for 15 seconds (denaturation) followed by 60° C. for 1.5 minutes (annealing/extension). Gene target quantities obtained by RT, real-time PCR were normalized using either the expression level of GAPDH, a gene whose expression is constant, or by quantifying total RNA using RiboGreenTM (Molecular Probes, Inc. Eugene, Oreg.). GAPDH expression was quantified by RT, real-time PCR, by being run simultaneously with the target, multiplexing, or separately. Total RNA was quantified using RiboGreenTM RNA quantification reagent (Molecular Probes, Inc. Eugene, Oreg.). A series of oligomeric compounds was designed to target different regions of human glucose-6-phosphatase translocase, using published sequences cited in Table 1. All compounds in Table 4 are chimeric oligonucleotides (“gapmers”) 20 nucleotides in length, composed of a central “gap” region consisting of 10 2'-deoxynucleotides, which is flanked on both sides ([NT]) by five-nucleotide “wings”. The wings are composed of 2'-O-(2-methoxyethyl) nucleotides, also known as 2'-MOE nucleotides. The internucleoside (backbone) linkages are phosphorothioate throughout the oligonucleotide. All cytidine residues are 5-methylcytidines. The compounds were analyzed for their effect on gene target mRNA levels by quantitative real-time PCR as described in other examples herein, using the following primer-probe set designed to hybridize to human glucose-6-phosphatase translocase: Forward primer: [NT] (incorporated herein as SEQ ID NO: 24) Reverse primer: [NT] (incorporated herein as SEQ ID NO: 25) And the PCR probe was: […] (incorporated herein as SEQ ID NO: 26), where FAM is the fluorescent dye and TAMRA is the quencher dye. Data are from experiments in which T-24 cells were treated with 100 nM of the antisense oligonucleotides of the present invention using LIPOFECTINTM. A reduction in expression is expressed as percent inhibition in Table 4. If present, “N.D.” indicates “not determined”. The control oligomeric compound used was SEQ ID NO: 11. […]

For data set [2] the test system is unchanged. As to the kind of experiment: Antisense inhibition of human glucose-6-phosphatase translocase mRNA in HepG2 cells (Table 11). The note with it: LIPOFECTIN, mRNA by real-time PCR. The arrangement: concentration or dose not given beside the values. Summed up:
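HepG2 cells at 65-75% confluency transfected with 2′-MOE gapmer oligonucleotides using LIPOFECTIN (2.5 or 3 μg/mL per 100 nM oligo) for 4-7 h and harvested 16-24 h later. Target mRNA measured by RT real-time PCR and normalized to GAPDH or RiboGreen total RNA.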
For orientation: In qPCR the cycle at which signal appears reflects the starting amount.

The test system of data set [3] is mouse glucose-6-phosphatase translocase mRNA. As to the kind of experiment: Antisense inhibition of mouse glucose-6-phosphatase translocase mRNA in primary mouse hepatocytes, 150 nM, LIPOFECTIN (Table 22). The note with it: real-time PCR. Summed up:
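Primary CD-1 mouse hepatocytes at 65-75% confluency transfected ~4-7 h at 37° C with 150 nM 5-10-5 2′-MOE gapmer phosphorothioate oligonucleotides plus LIPOFECTIN (2.5 or 3 μg/mL per 100 nM). Harvested 16-24 h post-treatment; mRNA by real-time RT-PCR, normalized to GAPDH or RiboGreen total RNA, expressed as percent inhibition.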

Oligonucleotides are written 5' to 3', each unit as a sugar letter and its base; * is a phosphorothioate linkage, no mark a phosphodiester; rarer units and linkages stand in square brackets, end groups in braces. Plain capitals give the bases only. e = 2'-O-(2-methoxyethyl) (MOE); [5mC] = 5-methylcytosine; d = 2'-deoxy (DNA)

For “AACCACACACAGTGCCCCAG (eA*eA*e[5mC]*e[5mC]*eA*d[5mC]*dA*d[5mC]*dA*d[5mC]*dA*dG*dT*dG*d[5mC]*e[5mC]*e[5mC]*e[5mC]*eA*eG; antisense) [ISIS 194853]”, the “% Inhib” value in data set [1] is on record as 35%. Still for that read-out and setting: the figure for “AGATAGGGCCAGCGTGCTGC (eA*eG*eA*eT*eA*dG*dG*dG*d[5mC]*d[5mC]*dA*dG*d[5mC]*dG*dT*eG*e[5mC]*eT*eG*e[5mC]; antisense) [ISIS 194832]” is 55%.

Regarding “AGGCAAAGAATATGTTGACC (eA*eG*eG*e[5mC]*eA*dA*dA*dG*dA*dA*dT*dA*dT*dG*dT*eT*eG*eA*e[5mC]*e[5mC]; antisense) [ISIS 194830]”, the “% Inhib” value in data set [1] amounted to 68%. The same measure, in the same setting: under “ATGGCGAGGGTTCCCGTAGT (eA*eT*eG*eG*e[5mC]*dG*dA*dG*dG*dG*dT*dT*d[5mC]*d[5mC]*d[5mC]*eG*eT*eA*eG*eT; antisense) [ISIS 194831]” stands 54%. Still for that read-out and setting: under “CACCTATATCCAACTGCGCC (e[5mC]*eA*e[5mC]*e[5mC]*eT*dA*dT*dA*dT*d[5mC]*d[5mC]*dA*dA*d[5mC]*dT*eG*e[5mC]*eG*e[5mC]*e[5mC]; antisense) [ISIS 194837]” stands 81%; under “CAGGGCACTCATGTAGGAGC (e[5mC]*eA*eG*eG*eG*d[5mC]*dA*d[5mC]*dT*d[5mC]*dA*dT*dG*dT*dA*eG*eG*eA*eG*e[5mC]; antisense) [ISIS 194840]”, 51%.

Regarding “CAGTTCCCAGATCTGCTGAG (e[5mC]*eA*eG*eT*eT*d[5mC]*d[5mC]*d[5mC]*dA*dG*dA*dT*d[5mC]*dT*dG*e[5mC]*eT*eG*eA*eG; antisense) [ISIS 194851]”, the “% Inhib” value in data set [1] is reported as 73%. Regarding “CAGTTCCTGCTTGCCGCTCT (e[5mC]*eA*eG*eT*eT*d[5mC]*d[5mC]*dT*dG*d[5mC]*dT*dT*dG*d[5mC]*d[5mC]*eG*e[5mC]*eT*e[5mC]*eT; antisense) [ISIS 194856]”, the “% Inhib” value in data set [1] stood at 56%. With “CATTAGTGCCCTGCAGCTGC (e[5mC]*eA*eT*eT*eA*dG*dT*dG*d[5mC]*d[5mC]*d[5mC]*dT*dG*d[5mC]*dA*eG*e[5mC]*eT*eG*e[5mC]; antisense) [ISIS 194828]”, in data set [1], the “% Inhib” value is 73%. Still for that read-out and setting: under “CCAGGCAGGCCCCTCCTTTT (e[5mC]*e[5mC]*eA*eG*eG*d[5mC]*dA*dG*dG*d[5mC]*d[5mC]*d[5mC]*d[5mC]*dT*d[5mC]*e[5mC]*eT*eT*eT*eT; antisense) [ISIS 194858]” stands 71%; under “CCTGCTTGCCGCTCTCACAG (e[5mC]*e[5mC]*eT*eG*e[5mC]*dT*dT*dG*d[5mC]*d[5mC]*dG*d[5mC]*dT*d[5mC]*dT*e[5mC]*eA*e[5mC]*eA*eG; antisense) [ISIS 194844]”, 73%.

For “CTGTAGCCCCCAAACATGGC (e[5mC]*eT*eG*eT*eA*dG*d[5mC]*d[5mC]*d[5mC]*d[5mC]*d[5mC]*dA*dA*dA*d[5mC]*eA*eT*eG*eG*e[5mC]; antisense) [ISIS 194835]”, the “% Inhib” value in data set [1] was 59%.

Regarding “GGCATGACAAAGGAGAAGGT (eG*eG*e[5mC]*eA*eT*dG*dA*d[5mC]*dA*dA*dA*dG*dG*dA*dG*eA*eA*eG*eG*eT; antisense) [ISIS 145657]”, the “% Inhib” value in data set [2] was found to be 43%. In addition, in data set [3], the “% Inhib of mouse glucose-6-phosphatase translocase mRNA levels” value came to 45%. “GGTTCATTGTGGATGAGCAG (eG*eG*eT*eT*e[5mC]*dA*dT*dT*dG*dT*dG*dG*dA*dT*dG*eA*eG*e[5mC]*eA*eG; antisense) [ISIS 145673]”: the “% Inhib” value in data set [2] was determined as 47%. Further, the “% Inhib of mouse glucose-6-phosphatase translocase mRNA levels” value in data set [3] worked out at 4%. On the same counts, the results for “TGGGCTGCCATGGTAGAAAA (eT*eG*eG*eG*e[5mC]*dT*dG*d[5mC]*d[5mC]*dA*dT*dG*dG*dT*dA*eG*eA*eA*eA*eA; antisense) [ISIS 145652]” are 50% and 36%. “TTGGCAATGGTGCTGAAGGG (eT*eT*eG*eG*e[5mC]*dA*dA*dT*dG*dG*dT*dG*d[5mC]*dT*dG*eA*eA*eG*eG*eG; antisense) [ISIS 145700]”: the “% Inhib” value in data set [2] was found to be 24%. The “% Inhib of mouse glucose-6-phosphatase translocase mRNA levels” value in data set [3] stood at 1%.

For the origin of these results see patent US8258114B2, “Modulation of glucose-6-phosphatase translocase expression” (Isis Pharmaceuticals, Inc., priority 2004, dated 2012).
